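Briefly, cells in 96-well plates were exposed to five compound concentrations for 48 h, and endpoints were estimated by linear interpolation. Definition used: TGI = concentration required for complete inhibition of growth.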
Tests used:
Experiment in all cases: NCI anticancer screen, dose series, 48 h
ACHN renal = tested on: ACHN renal
CAKI-1 renal = tested on: CAKI-1 renal
HCC-2998 colon = tested on: HCC-2998 colon
HCT-15 colon = tested on: HCT-15 colon
HL-60(TB) leukemia = tested on: HL-60(TB) leukemia
HOP-62 NSCLC = tested on: HOP-62 NSCLC
HT29 colon = tested on: HT29 colon
K-562 leukemia = tested on: K-562 leukemia
LOX IMVI melanoma = tested on: LOX IMVI melanoma
M14 melanoma = tested on: M14 melanoma
MDA-MB-435 = tested on: MDA-MB-435
MDA-N = tested on: MDA-N
MOLT-4 leukemia = tested on: MOLT-4 leukemia
NCI/ADR-RES ovarian = tested on: NCI/ADR-RES ovarian
OVCAR-4 ovarian = tested on: OVCAR-4 ovarian
OVCAR-8 ovarian = tested on: OVCAR-8 ovarian
RXF 393 renal = tested on: RXF 393 renal
SF-295 CNS = tested on: SF-295 CNS
SK-MEL-5 melanoma = tested on: SK-MEL-5 melanoma
UACC-62 melanoma = tested on: UACC-62 melanoma

Q: What does the source list for CCN(CCCl)c1cc(CN(C)C)cc(NC(=O)c2ccc(C(=O)Nc3cccc(N(CCCl)NN)c3)cc2)c1?
A: TGI (ACHN renal): 0.233 µM; TGI (CAKI-1 renal): 0.203 µM; TGI (HCC-2998 colon): 0.298 µM; TGI (HCT-15 colon): 4.89 µM; TGI (HL-60(TB) leukemia): 13.1 µM; TGI (HOP-62 NSCLC): 10.7 µM; TGI (HT29 colon): 0.0409 µM; TGI (K-562 leukemia): 0.199 µM; TGI (LOX IMVI melanoma): 0.034 µM; TGI (M14 melanoma): 0.294 µM; TGI (MDA-MB-435): 0.0389 µM; TGI (MDA-N): 0.169 µM; TGI (MOLT-4 leukemia): 0.0285 µM; TGI (NCI/ADR-RES ovarian): 12.7 µM; TGI (OVCAR-4 ovarian): 0.364 µM; TGI (OVCAR-8 ovarian): 0.942 µM; TGI (RXF 393 renal): 0.142 µM; TGI (SF-295 CNS): 12.5 µM; TGI (SK-MEL-5 melanoma): 0.174 µM; TGI (UACC-62 melanoma): 0.324 µM
